According to patent US6197774A, “Pyrimidine derivative” (Otsuka Pharmaceutical Co., Ltd., priority 1997, dated 2001):

Assays:
5-lipoxygenase = target: T1, 5-lipoxygenase (Rattus norvegicus, UniProt P12527); experiment: Activity for inhibiting 5-lipoxygenase in vitro (crude enzyme from rat basophilic leukemia-1 cells, 5-HETE RIA); format: biochemical; conditions: 8 minutes at 25° C.
T1 construct: Thus obtained supernatant was collected and concentrated so as to obtain crude enzyme containing 5-lipoxygenase; host or cells: rat basophilic leukemia-1 cells
T1 sequence (P12527 1-673): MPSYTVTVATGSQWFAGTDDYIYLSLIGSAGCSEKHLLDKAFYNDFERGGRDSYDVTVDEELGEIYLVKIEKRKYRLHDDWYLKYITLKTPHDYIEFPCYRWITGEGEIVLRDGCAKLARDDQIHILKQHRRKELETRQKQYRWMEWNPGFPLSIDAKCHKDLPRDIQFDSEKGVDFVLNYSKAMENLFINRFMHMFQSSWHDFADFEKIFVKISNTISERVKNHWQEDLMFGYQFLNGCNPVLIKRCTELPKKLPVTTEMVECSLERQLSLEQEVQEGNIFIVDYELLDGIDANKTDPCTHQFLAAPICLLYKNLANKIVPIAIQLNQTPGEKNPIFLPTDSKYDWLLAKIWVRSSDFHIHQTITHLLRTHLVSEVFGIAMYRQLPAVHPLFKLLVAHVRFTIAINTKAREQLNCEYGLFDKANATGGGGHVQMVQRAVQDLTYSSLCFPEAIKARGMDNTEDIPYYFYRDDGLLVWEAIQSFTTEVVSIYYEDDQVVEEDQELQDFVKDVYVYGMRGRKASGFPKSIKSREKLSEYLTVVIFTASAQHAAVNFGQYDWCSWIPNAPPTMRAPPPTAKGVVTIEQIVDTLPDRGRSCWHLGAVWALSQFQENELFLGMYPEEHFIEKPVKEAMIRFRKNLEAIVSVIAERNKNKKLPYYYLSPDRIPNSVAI
Description: [Evaluation test of activity for inhibiting 5-lipoxygenase in vitro]
(§1) Pyrimidine derivative obtained in Example 1 was used as test compound.
Test was referred to the methods as described in Proc. Natl. Acad. Sci. U.S.A., Vol. 81, pp. 689-693 (1984) and J. Biol. Chem., Vol. 260, pp. 11554--11559 (1985).
(1) Preparation of Crude Enzyme Containing 5-lipoxygenase
RBI-1 cells (rat basophilic leukemia-1, ATCC, 1×10^8 cells) in 5 ml of buffer solution (50 mM Tris/1 mM EDTA, pH 7.4) were lysed with nitrogen cavitation bomb (mfd. by PARR Instrument Company) under 750 psi for 20 min at 4° C. The solution were centrifuged with twice volume of 50 mM Tris/1 mM EDTA (pH 7.4) at 5000 rpm for 10 minutes at 4° C. The supernatant of the solution was taken and further centrifuged at 37,500 rpm for 90 minutes at 4° C. Thus obtained supernatant was collected and concentrated so as to obtain crude enzyme containing 5-lipoxygenase. Its protein concentration was determined with Protein assey kit (mfd. by Pierce).
(2) Evaluation of Activity for Inhibiting 5-lipoxygenase (RIA assay)
12.5 μl of Crude enzyme, 61.5 μl of 50 mM Tris-HCl (mfd. by Sigma Chemical Co.), 12.5 μl of 0.5 mM ATP (mfd. by Sigma Chemical Co.), and 12.5 μl of cofacter solution (50 mM Tris-HCl (pH 7.2, at 25° C.) containing 10 mM glutahion, 14 mM of indomethacin and 500 mM of CaCl2.2H2 O) were preincubated for […] at 25° C. for reference solution as control. On the other hand, the test solution containing the test compound of Example 1 was prepared similarly as in the reference solution, except adding 1 μl of the test compound (1×10^-4, 1×10^-5, and 1×10^-6 M).
25 μl of 0.07 mM Arachidonic acid (mfd. by Sigma Chemical Co.) was added each of the reference solution and test solutin to intiate the reaction, and incubated it for 8 minutes at 25° C. The reaction was terminated by adding 40 μl of citric acid (mfd. by Sigma Chemical Co.). […]
RIA assay was conducted by the 5-HETE [^3 H] […] RIA assay to determine the amount of 5-lipoxygenase by counting radioactivity on the liquid scintillation counter (mfd. by Beckman Co.). […]

[1] = tested on: formation of TNF-α in cell strain RAW 264.7; experiment: Activity for inhibiting the formation of TNF-α in vitro (RAW 264.7 cells, ELISA); format: cell-based; conditions: Mus musculus, RAW264.7, control 100, LPS 100 ng/ml, 24 hours, read-out: Ratio of formed amount of TNF-α
Description: [Evaluation test of activity for inhibiting the formation of TNF-α in vitro]
as §1
Cell strain RAW 264.7 (ATCC) derived from the macrophage of mouse was placed on each one of the wells on a microplate having 24-wells so as to put the cells in an amount of 3×10^5 cells/U (well). The cells were incubated for 24 hours in a phenol red free-RPMI-1640 culture medium (mfd. by GIBCO) to which 10% of equine serum (mfd. by Bio Whittaker), 100 U/ml of penicillin (mfd. by Dainippon Pharmaceutical Co., Ltd.) and 100 μg/ml of streptomycin (mfd. by Dainippon Pharmaceutical Co., Ltd.) were added.
Next, the equine serum was removed from the culture medium, and the reference culture medium as control was prepared by adding 2 mM of L-arginine (mfd. by Wako Pure Chemical Industries, Ltd.), 10 μM/ml of tetrahydrobiopterin (mfd. by ALEXIS) and 100 ng/ml of lipopolysaccharide (LPS)(mfd. by Sigma Chemical Co.) to a phenol red free-RPMI-1640 culture medium, so as to induce the formation of TNF-α.
On the other hand, the test culture medium, containing the test compound of Example 1 was prepared similarly as in the reference culture medium, except adding the test compound (1×10^-4, 1×10^-5 and 1×10^-6 M) dissolved in dimethyl sulfoxide (DMSO) at the same time of LPS-addition.
The concentration of TNF-α formed in the supernatant of each one of the culture media after 24 hour-incubation was measured by Factor-Test-X Mouse TNF-α ELISA Kit (mfd. by genzyme).

COCc1cc(=O)n2ncc(-c3ccc(Sc4ccccc4)cc3)c2[nH]1 [Example 1, 4,7-dihydro-5-methoxymethyl-7-oxo-3-(4-phenylthiophenyl)pyrazolo[1,5-a]pyrimidine]
inhibition at 100 µM (5-lipoxygenase; 1 × 10^-4 M): 24.3%
inhibition at 10 µM (5-lipoxygenase; 1 × 10^-5 M): 38.8%
inhibition at 1 µM (5-lipoxygenase; 1 × 10^-6 M): 68%
activity at 100 µM ([1]; 1 × 10^-4 M): 5.1%
activity at 10 µM ([1]; 1 × 10^-5 M): 59.9%
activity at 1 µM ([1]; 1 × 10^-6 M): 120%
